According to US20030032793A1, “Gene of PGT of human brain type” (priority 1999, published 2003):

Test system: Rat Cerebral Cortex Neuronal Culture
Assay: Apoptosis induction by Amyloid β peptide (Aβ 25-35) in PGT 40/PGT 70-transfected neurons and inhibiting action of PGE 1
Assay type: cell-based
Details: Aβ 25-35 exposure 24 hours
Excerpt: PGT 40 or PGT 70 cDNA was inserted into pTracer-SV 40 vector (Invitrogen) to construct an expression vector. PGT 40 means the brain-type PGT of the present invention. PGT 70 means the lung-type PGT which was disclosed in the prior art literature.
Fetus of 17 days age (viviparous) was ejected from pregnant rat of SD strain and, in an ice-cold L-15 medium (Invitrogen), cerebral cortex was collected from brain of the fetus. After it was finely cut by scissors, cells were dispersed using a kit for dispersing the neurons (Sumilon), sowed on a polyethyleneimine-coated cover glass (diameter: 12 mm; manufactured by Asahi Technoglass) in a living cell density of 1.6×10^5 cells/cm^2 and cultured (at 37° C. with 5% of CO2). […]
After the cells were fixed (at room temperature for 5 minutes) with a 10% neutral buffered formalin solution, they were stained with 0.01 mg/mL Hoechst 33342 (being dissolved in PBS(−); Molecular Probe) and, under a fluorescent microscope, […] total cell numbers and apoptosis cells (the cells which were aggregated and fragmented by chromatin) were counted in random 20 fields for one example whereupon the apoptosis-positive cell percentage (%) was calculated. […]

| Molecule | action of PGE1 on Aβ-induced apoptosis (PGE 1 0.01, 0.1, 1 and 10 μM added together with Aβ) | effect of PGT expression on anti-apoptosis action of PGE1 (apoptosis-positive cell percentage / apoptosis inhibiting rate) (neurons transfected with PGT expression vector, PGE 1 0.01, 0.1, 1 and 10 μM, Hoechst 33342 staining) |
| --- | --- | --- |
| CCCCC[C@H](O)/C=C/[C@H]1[C@H](O)CC(=O)[C@@H]1CCCCCCC(=O)O [PGE1] | anti-apotosis action |  |
| PGT40: the brain-type PGT (prostaglandin transporter) of the present invention, SEQ ID NO: 3, expressed from pTracer-SV 40 vector |  | accelerate anti-apotosis action of PGE1 |
